Series [1] relates to L. donovani axenic amastigotes. The experiment in a line: Axenic amastigote rate-of-kill assay. The class given is cell-based, Leishmania donovani. On the procedure:
T. cruzi4, Leishmania donovani axenic amastigote, cidal axenic amastigote and intra-macrophage drug sensitivity assays were conducted as previously described5,6.
The rate of kill of compound 8 was determined in axenic amastigotes using the previously described cidal axenic assay5, with one minor modification. Instead of a single readout at 72 h, multiple identical plates were used and read at different time points (24, 48, 72 h). Rate of kill curves showing the luminescence signal at each time point for each concentration were plotted.
5. Intrinsic clearance (CLint)
Test compound (0.5 µM) was incubated with female CD1 mouse liver microsomes (Xenotech LLC TM; 0.5 mg/mL 50 mM potassium phosphate buffer, pH7.4) and the reaction started with addition of excess NADPH (8 mg/mL 50 mM potassium phosphate buffer, pH7.4). Immediately, at time zero, then at 3, 6, 9, 15 and 30 minutes an aliquot (50 µL) of the incubation mixture was removed and mixed with acetonitrile (100 µL) to stop the reaction. […]
XLfit (idbs, UK) was used to calculate the exponential decay and consequently the rate constant (k) from the ratio of peak area of test compound to internal standard at each time-point. The rate of intrinsic clearance (CLint) of each test compound was then calculated using the following calculation: […]
Amastigote levels (as RLU, relative luminescence units) for each tested concentration plotted against time. […]

In series [2] the test system is ubiquitylated proteins in L. donovani axenic amastigotes. Kind of series: Western blot of ubiquitylated proteins in axenic amastigotes. The class given is cell-based, Leishmania donovani. Particulars: dose-dependent. The procedure: k. Proteasome activity assays
Compounds were dispensed into black 384-well assay plates (Greiner) by acoustic dispensing (LabCyte ECHO). For potency determinations, eleven-point, one in three dilution curves were generated, with a top concentration of 100 µM. Three proteasome activities were measured using a commercially available indirect enzyme-based luminescent assay kit (Promega) with Suc-LLVY-aminoluciferin, Z-LRR-aminoluciferin and Z-nLPnLD-aminoluciferin used as substrates for chymotrypsin-like, trypsin-like and caspase-like activities, respectively. In addition to proteasome samples: L. donovani and THP1-enriched proteasomes, commercially available human purified 26S proteasome (Boston Biochem) was also assessed. Proteasome final assay concentration were 0.025 mg/ml for L. donovani and THP1-enriched proteasomes and 1 nM for human purified 26S proteasome. […]
Substrate solution was then added and after 30 min of incubation luminescent signal was measured in an Envision reader (PerkinElmer). […]
value) were used as negative and positive controls, respectively. […] Protein concentrations were determined by standard Bradford assays and Laemmli sample buffer was added to samples. […]
Figure S6. […] Ubiquitin proteins were detected using the human anti-ubiquitin P4D1 antibody diluted 1:1,000. […]

Series [3] relates to WP2 uvrA (pKM101). Kind of series: Ames test, strain WP2 uvrA (pKM101). The procedure: oxidative metabolism system (S9-mix). The maximum concentration tested and […]
Compound 7a was tested in a bacterial mutation screening assay (Ames test) with Salmonella typhimurium TA1535, TA1537, TA98, TA100 and Escherichia coli WP2uvrA(pKM101) in the presence and absence of an exogenous mammalian […]
The bacterial mutation screening assay was a plate incorporation test carried out as previously described15 and according to current methodology. […]
(The Ames test detects mutagens through reverse mutation in bacteria.)

Each structure is given as a SMILES string. “Also recorded” adds a separate entry of the source.

Take `O=C(Nc1ccc(F)c(-c2ccn3c(N4CCOCC4)cnc3n2)c1)N1CCCC1` [Compound 8]: in series [1] (after 72 h), the “minimum concentration inducing parasite cell death” value was determined as 620 nM. Besides, in series [1] (as compound concentrations were increased), the time to kill was 48 h. Also, in series [2], the “accumulation of ubiquitylated proteins” value is given as “dose-dependent manner; also recorded: induces the accumulation of ubiquitylated proteins”. In addition, the “Mean revertants per plate” value in series [3] (with S9-mix, dose level 50 per plate) amounted to 150.5; in series [3] (with S9-mix, dose level 150 per plate) it was 164.5; in series [3] (with S9-mix, dose level 500 per plate) it was 143.5; in series [3] (with S9-mix, dose level 1500 per plate), 139.0; in series [3] (with S9-mix, dose level 2500 per plate), 130.5; in series [3] (with S9-mix, dose level 5000 per plate), 133.5. For the same compound, the “Mean revertants per plate” value was 90.0 in series [3] (without S9-mix, dose level 50 per plate); 84.5 in series [3] (without S9-mix, dose level 150 per plate); 80.5 in series [3] (without S9-mix, dose level 500 per plate); 87.5 in series [3] (without S9-mix, dose level 1500 per plate); 91.5 in series [3] (without S9-mix, dose level 2500 per plate); 82.0 in series [3] (without S9-mix, dose level 5000 per plate).

These data come from article PMC6511062, “Preclinical candidate for the treatment of visceral leishmaniasis that acts through proteasome inhibition” (Proceedings of the National Academy of Sciences of the …, 2019).
